This note sets out measurements from patent US20260001928A1 (CORTERIA PHARMACEUTICALS, priority 2022, published 2026).

One data set addresses T1, human CRF2a receptor (Homo sapiens, UniProt Q13324).
T1 construct: expressed in transfected cells; host or cells: TeloHEAC cells
T1 sequence (Q13324 1-411): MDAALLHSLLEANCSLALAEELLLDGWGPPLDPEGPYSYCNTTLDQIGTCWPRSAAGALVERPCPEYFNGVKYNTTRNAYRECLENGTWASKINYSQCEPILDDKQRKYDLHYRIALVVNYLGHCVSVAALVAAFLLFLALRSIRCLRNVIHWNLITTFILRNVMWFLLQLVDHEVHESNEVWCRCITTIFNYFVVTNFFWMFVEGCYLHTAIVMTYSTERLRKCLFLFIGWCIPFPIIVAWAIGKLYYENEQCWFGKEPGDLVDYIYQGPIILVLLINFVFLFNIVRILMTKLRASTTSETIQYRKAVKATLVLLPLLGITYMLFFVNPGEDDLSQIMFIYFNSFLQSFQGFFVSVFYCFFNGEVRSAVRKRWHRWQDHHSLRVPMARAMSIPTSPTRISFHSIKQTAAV
Briefly: Activity at human CRF2a receptor, cAMP functional assay in TeloHEAC cells. It counts as cell-based. The note with it: TeloHEAC cells stably expressing human CRF2a receptor, relative to urocortin 2 (100 nM = 100%). In a few lines:
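TeloHEAC cells stably expressing human CRF2a (10000 cells/well) were treated with 16-point 1:2 compound dilutions in HBSS/20 mM HEPES with IBMX for 30 min at 37° C. cAMP was read by HTRF (665/620 nm ratio). EC50 was the concentration giving 50% activation, with 100 nM urocortin 2 set as 100%.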

The next data set addresses T2, CFR1R receptor (Homo sapiens, UniProt P34998).
T2 construct: host or cells: CHO-K1 (clone 2)
T2 sequence (P34998 24-415): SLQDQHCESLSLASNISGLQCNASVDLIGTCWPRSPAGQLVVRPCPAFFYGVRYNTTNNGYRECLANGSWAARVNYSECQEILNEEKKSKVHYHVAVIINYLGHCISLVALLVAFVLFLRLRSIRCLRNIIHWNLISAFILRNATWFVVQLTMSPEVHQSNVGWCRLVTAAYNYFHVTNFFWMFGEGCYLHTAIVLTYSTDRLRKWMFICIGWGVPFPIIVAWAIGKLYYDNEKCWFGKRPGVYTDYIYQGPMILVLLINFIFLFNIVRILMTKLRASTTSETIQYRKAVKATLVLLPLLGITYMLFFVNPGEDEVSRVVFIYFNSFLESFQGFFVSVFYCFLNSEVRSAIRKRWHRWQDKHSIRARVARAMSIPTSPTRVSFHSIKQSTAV
Briefly: Activity at anti-target CFR1R receptor, cAMP assay in CRF1R-overexpression CHO-K1 cells. It counts as cell-based. The note with it: 100% = Sauvagine at 100 nM; for EC50: cAMP. A digest of the protocol:
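Grow clone 2 to near confluence at 37° C. under 5% CO2 in F12 (Hams) with 10% FBS and G418, harvest, and freeze in 10% DMSO. Thaw and plate at 4000 cells/well. Then proceed per the TeloHAEC method, normalising to Sauvagine 100 nM as maximum.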
For orientation: Cyclic AMP is a second messenger, typically raised through Gs and lowered through Gi signalling.

The target in a further data set is T3, rat CRF2 a (Rattus norvegicus, UniProt P47866).
T3 construct: host or cells: A7R5 rat aortic smooth muscle cells
T3 sequence (P47866 27-431 isoform P47866-2 limits assumed): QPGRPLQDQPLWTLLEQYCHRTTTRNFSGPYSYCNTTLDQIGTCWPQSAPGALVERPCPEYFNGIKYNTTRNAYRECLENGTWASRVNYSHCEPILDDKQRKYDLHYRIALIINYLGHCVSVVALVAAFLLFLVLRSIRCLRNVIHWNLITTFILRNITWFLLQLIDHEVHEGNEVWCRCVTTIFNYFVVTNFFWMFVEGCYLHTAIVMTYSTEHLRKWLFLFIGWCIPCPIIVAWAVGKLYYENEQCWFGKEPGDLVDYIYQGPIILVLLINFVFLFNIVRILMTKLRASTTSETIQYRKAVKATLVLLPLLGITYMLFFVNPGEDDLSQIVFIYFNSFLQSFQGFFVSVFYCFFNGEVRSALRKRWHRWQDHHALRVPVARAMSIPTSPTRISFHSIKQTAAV
Description: Activity at rat CRF2 a, cAMP assay in A7R5 rat aortic smooth muscle cells. The data set is classed as cell-based. The following applies: 0% HSA, 100% = Sauvagine at 100 nM. The procedure: The A7R5 rat aortic smooth muscle cell line used in this study was purchased from ATCC.
Cells were grown in a 10 cm dish at 37° C./5% CO2 in medium (DMEM/10% FBS) to near confluence. At that stage, cells were harvested, resuspended to 10 million/mL in culture medium and with 5% DMSO. 1 mL vial aliquots were slowly frozen to −80° C. in isopropanol and then transferred in liquid nitrogen for storage.
These vials were used to run the experiment following the procedure reported in the previous paragraph, except for the compound used in the control well to define the 100% activation (Sauvagine at 100 nM) and the cell density (final cell density: 5000 cells/well).

Data set [1] can be described thus: In vitro subcutaneous tissue supernatant (SCts) stability and metabolite identification, rat. The data set is classed as in vitro ADME. The arrangement: remaining at 2 h: dose or concentration left out as unconfirmed. The note with it: male, Sprague Dawley; rat subcutaneous tissue supernatant (SCts), 37° C, 2 h.
The nature of data set [2]: Chemical stability in buffer (pH 7.4 / pH 4.5), % purity loss. It counts as physicochemical. The following applies: 40° C. vs 5° C., 14 or 28 days; for Buffer stability pH 7.4 % purity loss: 100 mM phosphate buffer pH 7.4. In a few lines:
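LC-UV gave % loss after 14 or 28 days of storage at 5 °C or 40 °C. Samples were diluted supernatants from compound incubated 1 h at room temperature at 10 mg/mL target, in 100 mM acetate pH 4.5 or 100 mM phosphate pH 7.4.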

Data set [3] in a line: Pharmacokinetics in male Sprague Dawley rats after subcutaneous administration. The following applies: plasma, rat, SC, 0.05 mg/kg. The data set is classed as in vivo.
Assay in data set [4]: as above
The following applies: plasma, rat, IV. The data set is classed as in vivo.

*1 amine or outer side, *2 acyl side, *3 side chain or, on linkers, in order; H or OH if unused. Where a SMILES comes first, the peptide text is derived from it. Side-chain parts run from the residue outwards. [ ]: non-standard residue; d: D form. The star is where a group is joined. C20 diacid = O=C(O)CCCCCCCCCCCCCCCCCCC(=O)*; γGlu = O=C(O)[C@H](CCC(=O)[*:2])N[*:1]; NMeI = CC[C@H](C)[C@H](NC)C(=O)O; AEEA = NCCOCCOCC(=O)O; Aib = CC(C)(N)C(=O)O Bounds are passed on as bounds.

On to `CC[C@H](C)[C@H](NC)C(=O)N[C@H](C(=O)N[C@@H](CC(C)C)C(=O)N[C@@H](CO)C(=O)N[C@@H](CC(C)C)C(=O)N[C@@H](CC(=O)O)C(=O)N[C@@H](C(=O)N1CCC[C@H]1C(=O)N[C@H](C(=O)N[C@@H](CCCCN)C(=O)N[C@@H](CC(C)C)C(=O)N[C@@H](CCCCNC(=O)CC[C@H](NC(=O)CCCCCCCCCCCCCCCCCCC(=O)O)C(=O)O)C(=O)N[C@@H](CCCCN)C(=O)N[C@H](C(=O)N[C@@H](CC(C)C)C(=O)N[C@@H](CC(C)C)C(=O)N[C@@H](CCC(=O)O)C(=O)N[C@@H](CCC(N)=O)C(=O)N[C@@H](CCC(=O)O)C(=O)N[C@@H](CCCCN)C(=O)N[C@@H](CCC(N)=O)C(=O)N[C@@H](CCCCN)C(=O)N[C@@H](C)C(=O)N[C@@H](CCC(N)=O)C(=O)N[C@@H](CCCNC(=N)N)C(=O)N[C@@H](CCC(=O)O)C(=O)N[C@@H](CCC(N)=O)C(=O)N[C@@H](C)C(=O)N[C@@H](CCC(=O)O)C(=O)N[C@H](C(=O)N[C@@H](CC(N)=O)C(=O)NC(C)(C)C(=O)N[C@@H](CCC(N)=O)C(=O)N[C@H](C(=O)N[C@@H](CC(C)C)C(=O)N[C@@H](C)C(=O)N[C@@H](CCC(N)=O)C(=O)N[C@H](C(N)=O)C(C)C)[C@@H](C)CC)[C@@H](C)O)[C@@H](C)CC)[C@@H](C)CC)C(C)C)C(C)C` [compound 217] (H-[NMeI]VLSLD[dV]PIKLK([γGlu-C20 diacid])KILLEQEKQKAQREQAETN[Aib]QILAQV-NH2), for which the EC50 (commonly the concentration giving half of the maximal effect) on human CRF2a receptor was determined as 0.09 nM. Also, at CFR1R receptor, the “Emax (% I)” value is listed as 33 % I and the EC50 is greater than 250 nM. The half-maximal effective concentration (EC50) at rat CRF2 a was 0.06 nM. In addition, in data set [1], the share remaining – broadly, the share of the starting amount still present when the sample was taken – at 2 h came to 76%. Further, in data set [2], the “Buffer stability pH 7.4 % purity loss” value was 1.8/Not Tested %. For the same molecule, in data set [3], the AUC(0-t) (in general, the area under the concentration-time curve up to a stated or last time point) was determined as 4040 ng·h/mL; the Cmax (commonly the highest concentration seen after dosing) turned out to be 138 ng/mL; the Tmax (as a rule, the time from dosing to the highest level) turned out to be 8 h; the half-life (in general, the time needed for the level to fall by half in the phase considered) is 12 h. In data set [4] (0.025 mg/kg), the exposure AUC(0-t) is 4120 ng·h/mL and the half-life was 8 h.

`CC[C@H](C)[C@H](NC)C(=O)N[C@H](C(=O)N[C@@H](CC(C)C)C(=O)N[C@@H](CO)C(=O)N[C@@H](CC(C)C)C(=O)N[C@@H](CC(=O)O)C(=O)N[C@@H](C(=O)N1CCC[C@H]1C(=O)N[C@H](C(=O)N[C@@H](CCCCN)C(=O)N[C@@H](CC(C)C)C(=O)N[C@@H](CCCCNC(=O)COCCOCCNC(=O)CC[C@H](NC(=O)CCCCCCCCCCCCCCCCCCC(=O)O)C(=O)O)C(=O)N[C@@H](CCCCN)C(=O)N[C@H](C(=O)N[C@@H](CC(C)C)C(=O)N[C@@H](CC(C)C)C(=O)N[C@@H](CCC(=O)O)C(=O)N[C@@H](CCC(N)=O)C(=O)N[C@@H](CCC(=O)O)C(=O)N[C@@H](CCCCN)C(=O)N[C@@H](CCC(N)=O)C(=O)N[C@@H](CCCCN)C(=O)NC(C)(C)C(=O)N[C@@H](CCC(N)=O)C(=O)N[C@@H](CCCNC(=N)N)C(=O)N[C@@H](CCC(=O)O)C(=O)N[C@@H](CCC(N)=O)C(=O)N[C@@H](C)C(=O)N[C@@H](CCC(=O)O)C(=O)N[C@H](C(=O)N[C@@H](CC(N)=O)C(=O)NC(C)(C)C(=O)N[C@@H](CCC(N)=O)C(=O)N[C@H](C(=O)N[C@@H](CC(C)C)C(=O)N[C@@H](C)C(=O)N[C@@H](CCC(N)=O)C(=O)N[C@H](C(N)=O)C(C)C)[C@@H](C)CC)[C@@H](C)O)[C@@H](C)CC)[C@@H](C)CC)C(C)C)C(C)C` [compound 234] (H-[NMeI]VLSLD[dV]PIKLK([AEEA-γGlu-C20 diacid])KILLEQEKQK[Aib]QREQAETN[Aib]QILAQV-NH2) showed a concentration for a half-maximal effect (EC50) on human CRF2a receptor of 0.09 nM. Besides, on CFR1R receptor, the “Emax (% I)” value came out at 15 % I and the concentration for a half-maximal effect (EC50) is greater than 250 nM. The molecule further came in with a half-maximal effective concentration (EC50) at rat CRF2 a of 0.05 nM. In addition, the amount remaining at 2 h in data set [1] amounted to 68%. In data set [2] (100 mM acetate buffer pH 4.5), the “Buffer stability pH 4.5 % purity loss” value was found to be 0.0%. The “Buffer stability pH 7.4 % purity loss” value in data set [2] is −0.1%. In data set [3], the AUC(0-t) was determined as 2730 ng·h/mL, the Cmax came to 95 ng/mL, the Tmax came out at 6 h and the half-life is 7.5 h. In data set [4] (0.025 mg/kg), this molecule had an area under the curve AUC(0-t) of 2700 ng·h/mL and a half-life of 7 h.

`CC[C@H](C)[C@H](NC)C(=O)N[C@H](C(=O)N[C@@H](CC(C)C)C(=O)N[C@@H](CO)C(=O)N[C@@H](CC(C)C)C(=O)N[C@@H](CC(=O)O)C(=O)N[C@@H](C(=O)N1CCC[C@H]1C(=O)N[C@H](C(=O)N[C@@H](CCCCN)C(=O)N[C@@H](CC(C)C)C(=O)N[C@@H](CCCCNC(=O)CC[C@H](NC(=O)CC[C@H](NC(=O)CCCCCCCCCCCCCCCCCCC(=O)O)C(=O)O)C(=O)O)C(=O)N[C@@H](CCCCN)C(=O)N[C@H](C(=O)N[C@@H](CC(C)C)C(=O)N[C@@H](CC(C)C)C(=O)N[C@@H](CCC(=O)O)C(=O)N[C@@H](CCC(N)=O)C(=O)N[C@@H](CCC(=O)O)C(=O)N[C@@H](CCCCN)C(=O)N[C@@H](CCC(N)=O)C(=O)N[C@@H](CCCCN)C(=O)N[C@@H](CCC(=O)O)C(=O)N[C@@H](CCC(N)=O)C(=O)N[C@@H](CCCNC(=N)N)C(=O)N[C@@H](CCC(=O)O)C(=O)N[C@@H](CCC(N)=O)C(=O)N[C@@H](C)C(=O)N[C@@H](CCC(=O)O)C(=O)N[C@H](C(=O)N[C@@H](CC(N)=O)C(=O)NC(C)(C)C(=O)N[C@@H](CCC(N)=O)C(=O)N[C@H](C(=O)N[C@@H](CC(C)C)C(=O)N[C@@H](C)C(=O)N[C@@H](CCC(N)=O)C(=O)N[C@H](C(N)=O)C(C)C)[C@@H](C)CC)[C@@H](C)O)[C@@H](C)CC)[C@@H](C)CC)C(C)C)C(C)C` [compound 242] (H-[NMeI]VLSLD[dV]PIKLK([γGlu-γGlu-C20 diacid])KILLEQEKQKEQREQAETN[Aib]QILAQV-NH2) displayed an EC50 on human CRF2a receptor of 0.22 nM. Also, on CFR1R receptor, the “Emax (% I)” value amounted to 6 % I and the EC50 is greater than 250 nM. In addition, the EC50 at rat CRF2 a was 0.4 nM. Also, the amount remaining at 2 h in data set [1] was 68%. Also, the “Buffer stability pH 7.4 % purity loss” value in data set [2] is 0.0/Not Tested %. Moreover, in data set [4] (0.05 mg/kg), the AUC(0-t) worked out at 7970 ng·h/mL and the half-life was 14 h.
